Measurements as given in patent publication US20190292189A1, “LIM KINASE INHIBITORS” (VIRONGY, LLC, priority 2016, published 2019).

Columns and labels:
Assay in all cases: Kinase profiling at 1 μM (Reaction Biology)
Type in all cases: biochemical
Settings in all cases: ATP 10 μM
ROCK1 = target: T1, ROCK1 (Homo sapiens, UniProt Q13464)
T1 construct: purchased Reaction Biology Corporation
Method: (§1) Profiling was carried out at Reaction Biology Corporation following a protocol described at its website: http://www.reactionbiology.com/webapps/site/. The % data were the average from two determinations. ATP concentration used: 10 μM; Staurosporine was used as the positive control.
(§2) Biochemical assays for all Limk inhibitors and kinase profiling were carried out in Reaction Biology Corporation and followed the protocols described on its website. […] Compounds were tested at 1 μM with duplicate experiments in profiling assays. […] Reactions were carried out at 10 μM ATP, 1 μM substrate cofilin, and 50 nM Limk1 (final concentrations).

p70S6K/RPS6KB1 = target: T2, p70S6K/RPS6KB1 (Homo sapiens, UniProt P23443)
T2 construct: purchased Reaction Biology Corporation
Method: as §1, §2

MRCKa/CDC42BPA = target: T3, MRCKa/CDC42BPA (Homo sapiens, UniProt Q5VT25)
T3 construct: purchased Reaction Biology Corporation
Method: as §1, §2

PIM2 = target: T4, PIM2 (Homo sapiens, UniProt Q9P1W9)
T4 construct: purchased Reaction Biology Corporation
Method: as §1, §2

PAK2 = target: T5, PAK2 (Homo sapiens, UniProt Q13177)
T5 construct: purchased Reaction Biology Corporation
Method: as §1, §2

FLT3 = target: T6, FLT3 (Homo sapiens, UniProt P36888)
T6 construct: purchased Reaction Biology Corporation
Method: as §1, §2

ALK = target: T7, ALK (Homo sapiens, UniProt Q9UM73)
T7 construct: purchased Reaction Biology Corporation
Method: as §1, §2

JAK3 = target: T8, JAK3 (Homo sapiens, UniProt P52333)
T8 construct: purchased Reaction Biology Corporation
Method: as §1, §2

IKKe/IKBKE = target: T9, IKKe/IKBKE (Homo sapiens, UniProt Q14164)
T9 construct: purchased Reaction Biology Corporation
T9 sequence (Q14164 whole entry): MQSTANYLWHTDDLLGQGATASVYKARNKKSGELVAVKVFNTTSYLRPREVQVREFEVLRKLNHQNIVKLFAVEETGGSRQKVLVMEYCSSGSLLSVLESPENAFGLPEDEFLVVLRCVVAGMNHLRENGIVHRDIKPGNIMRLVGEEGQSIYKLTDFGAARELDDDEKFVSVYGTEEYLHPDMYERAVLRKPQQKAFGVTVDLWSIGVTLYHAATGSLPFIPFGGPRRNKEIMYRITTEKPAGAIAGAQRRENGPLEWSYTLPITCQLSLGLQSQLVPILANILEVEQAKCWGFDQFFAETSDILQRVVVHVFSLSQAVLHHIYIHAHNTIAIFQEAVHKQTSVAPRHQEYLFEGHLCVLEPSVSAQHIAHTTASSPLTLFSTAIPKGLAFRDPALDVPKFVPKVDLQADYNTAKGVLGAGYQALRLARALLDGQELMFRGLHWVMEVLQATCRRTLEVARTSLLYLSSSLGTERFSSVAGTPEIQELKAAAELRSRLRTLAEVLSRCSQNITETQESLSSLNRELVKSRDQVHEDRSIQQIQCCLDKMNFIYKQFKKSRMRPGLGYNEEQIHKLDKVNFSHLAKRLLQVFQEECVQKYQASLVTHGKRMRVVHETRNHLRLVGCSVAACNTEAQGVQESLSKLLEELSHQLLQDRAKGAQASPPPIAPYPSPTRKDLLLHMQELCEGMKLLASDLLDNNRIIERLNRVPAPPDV
Method: as §1, §2

JNK1 = target: T10, JNK1 (Homo sapiens, UniProt P45983)
T10 construct: purchased Reaction Biology Corporation
Method: as §1, §2

IKKa/CHUK = target: T11, IKKa/CHUK (Homo sapiens, UniProt O15111)
T11 construct: purchased Reaction Biology Corporation
Method: as §1, §2

P38a/MAPK14 = target: T12, P38a/MAPK14 (Homo sapiens, UniProt Q16539)
T12 construct: purchased Reaction Biology Corporation
Method: as §1, §2

NEK1 = target: T13, NEK1 (Homo sapiens, UniProt Q96PY6)
T13 construct: purchased Reaction Biology Corporation
Method: as §1, §2

MLCK/MYLK = target: T14, MLCK/MYLK (Homo sapiens, UniProt Q15746)
T14 construct: purchased Reaction Biology Corporation
Method: as §1, §2

STK16 = target: T15, STK16 (Homo sapiens, UniProt O75716)
T15 construct: purchased Reaction Biology Corporation
Method: as §1, §2

IGFIR = target: T16, IGFIR (Homo sapiens, UniProt P08069)
T16 construct: purchased Reaction Biology Corporation
T16 sequence (P08069 31-1367): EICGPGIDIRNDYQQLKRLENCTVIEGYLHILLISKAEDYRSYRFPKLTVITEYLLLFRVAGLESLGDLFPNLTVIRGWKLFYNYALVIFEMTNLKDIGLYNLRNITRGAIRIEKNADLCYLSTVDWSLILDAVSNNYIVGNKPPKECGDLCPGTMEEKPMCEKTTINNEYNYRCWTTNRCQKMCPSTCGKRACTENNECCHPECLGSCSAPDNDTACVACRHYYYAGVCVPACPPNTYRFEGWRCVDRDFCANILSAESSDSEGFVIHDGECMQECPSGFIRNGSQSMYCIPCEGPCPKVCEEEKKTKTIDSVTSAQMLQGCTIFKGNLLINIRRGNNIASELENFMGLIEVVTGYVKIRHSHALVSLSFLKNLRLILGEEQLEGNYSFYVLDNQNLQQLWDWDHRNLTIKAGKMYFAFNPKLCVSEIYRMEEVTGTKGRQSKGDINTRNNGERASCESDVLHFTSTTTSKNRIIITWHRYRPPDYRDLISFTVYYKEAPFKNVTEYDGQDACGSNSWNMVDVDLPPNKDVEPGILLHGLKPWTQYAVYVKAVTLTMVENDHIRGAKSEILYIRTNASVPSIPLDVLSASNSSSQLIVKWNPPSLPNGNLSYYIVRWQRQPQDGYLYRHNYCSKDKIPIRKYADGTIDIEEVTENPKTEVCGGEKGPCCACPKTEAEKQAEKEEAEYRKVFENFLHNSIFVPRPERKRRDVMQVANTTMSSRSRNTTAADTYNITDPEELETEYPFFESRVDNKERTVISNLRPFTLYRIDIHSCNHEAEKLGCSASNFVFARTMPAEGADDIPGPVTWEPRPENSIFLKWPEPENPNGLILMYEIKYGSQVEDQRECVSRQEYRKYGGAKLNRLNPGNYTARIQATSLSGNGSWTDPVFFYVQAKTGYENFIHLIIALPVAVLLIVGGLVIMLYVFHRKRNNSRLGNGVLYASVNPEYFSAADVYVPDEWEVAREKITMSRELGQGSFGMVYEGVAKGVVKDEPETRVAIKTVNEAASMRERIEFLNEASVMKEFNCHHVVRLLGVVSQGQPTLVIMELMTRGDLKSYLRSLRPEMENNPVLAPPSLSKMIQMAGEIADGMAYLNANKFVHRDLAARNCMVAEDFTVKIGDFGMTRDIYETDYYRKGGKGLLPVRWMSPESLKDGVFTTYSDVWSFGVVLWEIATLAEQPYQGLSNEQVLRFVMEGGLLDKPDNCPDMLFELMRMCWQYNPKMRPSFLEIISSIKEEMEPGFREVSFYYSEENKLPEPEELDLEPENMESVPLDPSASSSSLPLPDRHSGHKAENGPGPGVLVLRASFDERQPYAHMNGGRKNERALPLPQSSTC
Method: as §1, §2

JNK3 = JNK3 (Homo sapiens, UniProt P53779)
Method: as §1, §2

TLK1 = target: T17, TLK1 (Homo sapiens, UniProt Q9UKI8)
T17 construct: purchased Reaction Biology Corporation
Method: as §1, §2

ABL1 = target: T18, ABL1 (Homo sapiens, UniProt P00519)
T18 construct: purchased Reaction Biology Corporation
Method: as §1, §2

PLK2 = target: T19, PLK2 (Homo sapiens, UniProt Q9NYY3)
T19 construct: purchased Reaction Biology Corporation
T19 sequence (Q9NYY3 whole entry): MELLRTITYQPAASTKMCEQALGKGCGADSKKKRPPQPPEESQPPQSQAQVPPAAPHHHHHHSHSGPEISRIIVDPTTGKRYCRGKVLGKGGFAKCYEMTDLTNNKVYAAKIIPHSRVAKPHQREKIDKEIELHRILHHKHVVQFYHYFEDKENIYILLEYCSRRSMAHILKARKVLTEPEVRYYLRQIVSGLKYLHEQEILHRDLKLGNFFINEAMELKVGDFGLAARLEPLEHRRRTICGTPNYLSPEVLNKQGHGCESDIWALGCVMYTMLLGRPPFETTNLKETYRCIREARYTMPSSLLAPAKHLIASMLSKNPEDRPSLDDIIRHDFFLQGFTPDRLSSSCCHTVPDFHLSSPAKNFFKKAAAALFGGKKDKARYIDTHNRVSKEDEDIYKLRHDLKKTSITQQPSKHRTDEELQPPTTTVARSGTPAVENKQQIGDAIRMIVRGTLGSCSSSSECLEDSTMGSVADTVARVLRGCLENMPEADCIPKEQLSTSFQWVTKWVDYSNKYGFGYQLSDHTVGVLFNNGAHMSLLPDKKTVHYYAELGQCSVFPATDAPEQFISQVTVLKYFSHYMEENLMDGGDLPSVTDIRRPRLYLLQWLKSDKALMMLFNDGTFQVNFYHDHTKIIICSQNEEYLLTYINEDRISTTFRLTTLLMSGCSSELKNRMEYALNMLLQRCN
Method: as §1, §2

PKCa = target: T20, PKCa (Homo sapiens, UniProt P17252)
T20 construct: purchased Reaction Biology Corporation
Method: as §1, §2

R5K1 = target: T21, R5K1 (Homo sapiens, UniProt Q15418)
T21 construct: purchased Reaction Biology Corporation
Method: as §1, §2

TESK1 = target: T22, TESK1 (Homo sapiens, UniProt Q15569)
T22 construct: purchased Reaction Biology Corporation
T22 sequence (Q15569 whole entry): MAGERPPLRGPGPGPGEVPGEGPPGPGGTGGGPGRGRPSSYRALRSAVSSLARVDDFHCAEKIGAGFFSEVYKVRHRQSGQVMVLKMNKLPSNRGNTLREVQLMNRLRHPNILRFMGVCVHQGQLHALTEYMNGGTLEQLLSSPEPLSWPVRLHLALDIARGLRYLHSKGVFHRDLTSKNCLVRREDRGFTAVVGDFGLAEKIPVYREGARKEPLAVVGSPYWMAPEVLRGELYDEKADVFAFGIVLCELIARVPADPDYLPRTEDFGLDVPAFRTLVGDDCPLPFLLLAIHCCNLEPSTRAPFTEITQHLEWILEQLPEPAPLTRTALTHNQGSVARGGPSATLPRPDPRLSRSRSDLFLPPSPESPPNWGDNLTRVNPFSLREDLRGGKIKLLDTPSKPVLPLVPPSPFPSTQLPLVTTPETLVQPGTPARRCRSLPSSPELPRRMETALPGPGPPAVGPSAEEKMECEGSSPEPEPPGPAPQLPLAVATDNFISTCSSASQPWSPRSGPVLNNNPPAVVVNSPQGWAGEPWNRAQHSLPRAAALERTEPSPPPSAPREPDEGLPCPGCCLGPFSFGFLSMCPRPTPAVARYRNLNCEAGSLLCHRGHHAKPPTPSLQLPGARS
Method: as §1, §2

G5K3b = target: T23, G5K3b (Homo sapiens, UniProt P49841)
T23 construct: purchased Reaction Biology Corporation
Method: as §1, §2

FGFR1 = target: T24, FGFR1 (Homo sapiens, UniProt P11362)
T24 construct: purchased Reaction Biology Corporation
Method: as §1, §2

KDR/VEGFR2 = target: T25, KDR/VEGFR2 (Homo sapiens, UniProt P35968)
T25 construct: purchased Reaction Biology Corporation
Method: as §1, §2

EPHA3 = target: T26, EPHA3 (Homo sapiens, UniProt P29320)
T26 construct: purchased Reaction Biology Corporation
Method: as §1, §2

PDGFRb = target: T27, PDGFRb (Homo sapiens, UniProt P09619)
T27 construct: purchased Reaction Biology Corporation
Method: as §1, §2

PKA = target: T28, PKA (Homo sapiens, UniProt P17612)
T28 construct: purchased Reaction Biology Corporation
Method: as §1, §2

IKKb/IKBKB = target: T29, IKKb/IKBKB (Homo sapiens, UniProt O14920)
T29 construct: purchased Reaction Biology Corporation
Method: as §1, §2

PKN1/PRK1 = target: T30, PKN1/PRK1 (Homo sapiens, UniProt Q16512)
T30 construct: purchased Reaction Biology Corporation
Method: as §1, §2

EGFR = target: T31, EGFR (Homo sapiens, UniProt P00533)
T31 construct: purchased Reaction Biology Corporation
Method: as §1, §2

TAK1 = target: T32, TAK1 (Homo sapiens, UniProt O43318)
T32 construct: purchased Reaction Biology Corporation
T32 sequence (O43318 1-303 limits assumed): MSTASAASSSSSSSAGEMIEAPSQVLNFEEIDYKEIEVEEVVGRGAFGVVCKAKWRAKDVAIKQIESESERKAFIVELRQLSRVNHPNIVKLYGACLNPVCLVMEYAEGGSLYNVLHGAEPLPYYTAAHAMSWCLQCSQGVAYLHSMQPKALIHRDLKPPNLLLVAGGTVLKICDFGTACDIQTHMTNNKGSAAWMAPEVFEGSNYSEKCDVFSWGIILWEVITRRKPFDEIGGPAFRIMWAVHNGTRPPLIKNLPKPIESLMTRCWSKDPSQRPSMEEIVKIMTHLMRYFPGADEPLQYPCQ
Method: as §1, §2

MEK1 = target: T33, MEK1 (Homo sapiens, UniProt Q02750)
T33 construct: purchased Reaction Biology Corporation
Method: as §1, §2

Aurora A = target: T34, Aurora A (Homo sapiens, UniProt O14965)
T34 construct: purchased Reaction Biology Corporation
Method: as §1, §2

c-Kit = target: T35, c-Kit (Homo sapiens, UniProt P10721)
T35 construct: purchased Reaction Biology Corporation
Method: as §1, §2

CK2a = target: T36, CK2a (Homo sapiens, UniProt P68400)
T36 construct: purchased Reaction Biology Corporation
Method: as §1, §2

FAK/PTK2 = target: T37, FAK/PTK2 (Homo sapiens, UniProt Q05397)
T37 construct: purchased Reaction Biology Corporation
Method: as §1, §2

T1 sequence (Q13464 whole entry): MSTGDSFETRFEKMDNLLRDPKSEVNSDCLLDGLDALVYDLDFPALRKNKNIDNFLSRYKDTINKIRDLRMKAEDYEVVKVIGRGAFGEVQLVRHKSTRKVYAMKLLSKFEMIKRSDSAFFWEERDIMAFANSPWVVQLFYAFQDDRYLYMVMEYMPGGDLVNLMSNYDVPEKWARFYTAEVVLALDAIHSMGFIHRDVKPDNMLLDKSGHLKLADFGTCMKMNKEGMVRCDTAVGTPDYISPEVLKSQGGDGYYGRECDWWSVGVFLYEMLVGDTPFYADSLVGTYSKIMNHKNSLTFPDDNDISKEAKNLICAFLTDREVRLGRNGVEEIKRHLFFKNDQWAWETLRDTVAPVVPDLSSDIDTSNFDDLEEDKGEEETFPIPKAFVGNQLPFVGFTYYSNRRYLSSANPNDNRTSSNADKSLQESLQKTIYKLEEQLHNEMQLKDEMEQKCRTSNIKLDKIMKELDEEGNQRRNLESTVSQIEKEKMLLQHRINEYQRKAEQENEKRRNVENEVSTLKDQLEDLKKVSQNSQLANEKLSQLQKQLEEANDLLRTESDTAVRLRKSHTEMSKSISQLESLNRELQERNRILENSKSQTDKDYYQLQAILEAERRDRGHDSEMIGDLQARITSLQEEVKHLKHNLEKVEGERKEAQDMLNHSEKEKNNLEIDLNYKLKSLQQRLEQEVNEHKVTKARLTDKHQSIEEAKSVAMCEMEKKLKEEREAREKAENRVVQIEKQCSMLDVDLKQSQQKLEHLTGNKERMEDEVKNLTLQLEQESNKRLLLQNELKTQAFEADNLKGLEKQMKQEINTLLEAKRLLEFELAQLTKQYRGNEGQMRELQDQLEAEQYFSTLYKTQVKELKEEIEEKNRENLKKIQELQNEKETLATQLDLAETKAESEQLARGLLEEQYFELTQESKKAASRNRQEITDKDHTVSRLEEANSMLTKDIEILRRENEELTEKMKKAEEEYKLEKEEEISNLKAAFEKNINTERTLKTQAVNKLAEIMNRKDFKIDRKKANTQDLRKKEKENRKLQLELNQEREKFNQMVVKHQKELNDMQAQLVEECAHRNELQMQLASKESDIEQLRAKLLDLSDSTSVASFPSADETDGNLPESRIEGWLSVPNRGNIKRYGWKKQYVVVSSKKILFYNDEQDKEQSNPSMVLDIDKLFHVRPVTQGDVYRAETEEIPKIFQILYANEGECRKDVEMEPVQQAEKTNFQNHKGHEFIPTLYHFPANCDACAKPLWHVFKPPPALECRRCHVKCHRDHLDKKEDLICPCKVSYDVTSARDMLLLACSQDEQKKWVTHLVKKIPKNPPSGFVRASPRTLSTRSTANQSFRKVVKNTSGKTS

COC(=O)c1ccc2[nH]c(C3CCN(c4ncnc5[nH]cc(Cl)c45)CC3)nc2c1 [Compound R10015, Methyl 2-(1-(5-chloro-7H-pyrrolo[2,3-d]pyrimidin-4-yl)piperidin-4-yl)-1Hbenzo[d]imidazole-5-carboxylate]
activity at 1 µM (ROCK1): 42.3%
activity at 1 µM (p70S6K/RPS6KB1): 10%
activity at 1 µM (MRCKa/CDC42BPA): 96.5%
activity at 1 µM (PIM2): 97.6%
activity at 1 µM (PAK2): 98.2%
activity at 1 µM (FLT3): 32.2%
activity at 1 µM (ALK): 95.5%
activity at 1 µM (JAK3): 61.1%
activity at 1 µM (IKKe/IKBKE): 84.1%
activity at 1 µM (JNK1): 95.2%
activity at 1 µM (IKKa/CHUK): 90.5%
activity at 1 µM (P38a/MAPK14): 98.6%
activity at 1 µM (NEK1): 67.2%
activity at 1 µM (MLCK/MYLK): 83.3%
activity at 1 µM (STK16): 48.6%
activity at 1 µM (IGFIR): 90%
activity at 1 µM (JNK3): 85.7%
activity at 1 µM (TLK1): 98.5%
activity at 1 µM (ABL1): 89.2%
activity at 1 µM (PLK2): 103%
activity at 1 µM (PKCa): 47.5%
activity at 1 µM (R5K1): 47.2%
activity at 1 µM (TESK1): 90.2%
activity at 1 µM (G5K3b): 67.8%
activity at 1 µM (FGFR1): 86.5%
activity at 1 µM (KDR/VEGFR2): 87.2%
activity at 1 µM (EPHA3): 91.1%
activity at 1 µM (PDGFRb): 78.6%
activity at 1 µM (PKA): 24%
activity at 1 µM (IKKb/IKBKB): 85.1%
activity at 1 µM (PKN1/PRK1): 58.6%
activity at 1 µM (EGFR): 93.2%
activity at 1 µM (TAK1): 82.4%
activity at 1 µM (MEK1): 75.6%
activity at 1 µM (Aurora A): 60.3%
activity at 1 µM (c-Kit): 81.3%
activity at 1 µM (CK2a): 94.2%
activity at 1 µM (FAK/PTK2): 81.5%
